Measured values taken from patent US10359433B2, “BAG3 as biochemical serum and tissue marker” (BIOUNIVERSA S.R.L., priority 2012, dated 2019).

Key:
J774 A.1 cells [1] = assay: FACS competition assay: FITC-rBAG3 binding to J774 A.1 cells with BAG3 peptides or F(ab′)2 fragments; format: cell-based, murine; settings: 14 nM FITC-BAG3, 625 nM of BAG3 peptides
Protocol: (§1) We addressed the functional significance of BAG3 release by cardiomyocytes. […] Therefore we investigated whether BAG3 could interact with blood cells. […] BAG3 binding to macrophages was specifically impaired by competing BAG3 peptides or by BAG3-sequestering F(ab′)2 fragments from anti-BAG3 monoclonal antibodies (Table I). In particular J774 cells were incubated with 14 nM FITC-BAG3 protein and with 625 nM of BAG3 peptides (peptide 1, peptide 2, peptide 3, peptide 4 or scrambled peptide) or with 420 nM of F(ab′)2 fragments from anti-BAG3 monoclonal and polyclonal antibodies (mouse monoclonal AC1, AC2 and rabbit polyclonal TOS2). F(ab′)2 fragments from mouse IgG or F(ab′)2 fragments from rabbit IgG were used as a negative control.
Competition—J774 A.1 cells (2.5×105/100 μl) were incubated with 625 nM of BAG3 peptides (peptide 1, peptide 2, peptide 3, peptide 4 or scrambled peptide) or with 420 nM of F(ab′)2 fragments from anti-BAG3 monoclonal and polyclonal antibodies (mouse monoclonal AC1, AC2 and rabbit polyclonal TOS2) or F(ab′)2 fragments from mouse IgG or F(ab′)2 fragments from rabbit IgG in PBS containing 2% FBS+0.1% NaN3 for 30 min on ice. After incubation the cells were washing with PBS and then were incubated with of FITC-rBAG3 protein (14 nM), in PBS containing 2% FBS+0.1% NaN3 for 30 min at 4° C. in the dark. After washing with PBS, the cells were resuspended in PBS+2% FBS+0.1% NaN3 and analyzed by flow cytometer (BD Biosciences).

HCMa cells = assay: Confocal direct fluorescence, rBAG3-FITC binding to cardiomyocytes; format: cell-based, human; settings: FIG. 3A, result in words
From the text: FIG. 3A: Confocal microscopy analysis of direct fluorescence performed for detection of rBAG3-FITC binding to HCMa cells (a, b, c) and J774 A1 cells (d, e, f, g, h, i). BAG3 recombinant protein and purified BSA (albumin from bovine serum purchased from SIGMA) were conjugated to FITC using the FluoroTag FITC Conjugation Kit purchased from SIGMA following the manufacturer instructions. Equal amount of rBAG3-FITC (b, e) and BSA-FITC (h) proteins, calculated following the manufacturer instructions, were added in HCM and J774 A1 culture media with 0.1% NaN3 […] (a, d, g). Cells were analyzed by a Zeiss LSM confocal microscope. Merged images are shown in c, f and i.
We addressed the functional significance of BAG3 release by cardiomyocytes. […]
Cells were cultured on coverslips in six-well plates to 60-70% confluence and equal amount of rBAG3-FITC and BSA-FITC proteins were added in HCMa and J774 A1 culture media with 0.1% NaN3 for 1 h. […] Samples were analyzed using a confocal laser scanning microscope (Zeiss LSM confocal microscope, Germany). […] For production of figures, brightness and contrast of images were adjusted by taking care to leave a light cellular fluorescence background for visual appreciation of the lowest fluorescence intensity features and to help comparison among the different experimental groups. […]

J774 A.1 cells [2] = assay: FACS analysis of FITC-rBAG3 binding to J774 A.1 macrophages; format: cell-based, murine
Protocol: FIG. 3B: BAG3 binds macrophages. J774 A1 macrophages (1×10^6 cells/ml) were incubated with different concentration of Fitc-BAG3 protein (7, 14 and 70 nm). FITC-BSA (70 nM) was used as a negative control (grey). Cells fluorescence was analyzed by flow cytometry.
as §1
rBAG3 binding—J774 A.1 cells were blocked with 2% FBS+0.1% NaN3 in PBS for 15 min on ice and incubated (2.5×105/100 μl) with different concentration of FITC-rBAG3 protein (7, 14 and 70 nm) or FITC-BSA (70 nM) in PBS containing 2% FBS+0.1% NaN3 for 30 min at 4° C. in the dark. After washing with PBS, the cells were resuspended in PBS+2% FBS+0.1% NaN3 and analyzed with a FACScan (BD Biosciences) flow cytometer.

J774 A1 macrophages [3] = assay: Nitrite release from J774 A1 macrophages (Griess reaction); format: cell-based, murine; settings: J774 A1, 24 hours, FIG. 3C panel b
Protocol: FIG. 3C panel b—Analysis of nitrite release from J774 A1 macrophages incubated with BAG3. J774 A1 cells at 80% confluency were incubated with control medium, BSA, LPS or rBAG3 for 24 hours. 100 μl of supernatants from each sample were incubated with 100 μl of Griess reagent; the optical density at 550 nm (OD550) was measured with a Beckman DU62 spectrophotometer. Nitrite concentration was evaluated by comparing the OD550 of the sample with that of a standard curve of sodium nitrite. Nitrite content (NO2^−), a stable metabolite of NO released by cells in the culture supernatant, was measured in J774 A.1 cells (5×104/in 96-well microplates) treated with LPS (10 ng/ml) or with rBAG3 (7, 14 and 28 nM) or BSA (28 nM) for 24 hours in absence or presence of polymyxin B sulfate (Sigma-Aldrich, St. Louis, Mo., USA) 5 μg/ml. NO2^− amounts were measured by Griess reaction. Briefly, 100 μL of cell culture medium were mixed with 100 μL of Griess reagent—equal volumes of 1% (w:v) sulphanilamide in 5% (v:v) phosphoric acid and 0.1% (w:v) naphtylethylenediamine-HCl—and incubated at room temperature for 10 min, and then the absorbance was measured at 550 nm in a microplate reader Titertek (Dasit, Cornaredo, Milan, Italy). The amount of NO2- (as μM) in the samples was calculated from a sodium nitrite standard curve.

J774 A1 macrophages [4] = assay: Cox-2 and iNOS levels in J774 A1 macrophages incubated with BAG3 (western blot); format: cell-based, murine; settings: BAG3-treated macrophages, 20 hours, FIG. 3C panel a
Protocol: FIG. 3C panel a—Analysis of Cox-2 and iNOS levels in J774 A1 macrophages incubated with BAG3. J774 A1 cells at 80% confluency were incubated with control medium, BSA, LPS or rBAG3, for 20 hours. Polymixin was added where indicated to verify that the effects of E. coli-derived rBAG3 were independent from the presence of contaminating endotoxin. Cox-2 and iNOS expression were analyzed in cell lysates by Western blotting. To explore functional consequences of BAG3 binding to macrophages, we tested the effect of recombinant BAG3 on the expression of inducible nitric oxide synthase (iNOS) and cyclooxygenase (Cox)-2 in the cells. As shown in FIG. 3C panel a the levels of those enzymes were enhanced in BAG3-treated macrophages. […] Soluble proteins were collected after a centrifugation at 10,000 g for 15 min and their amount was determined by Bradford assay (Bio-Rad, Hercules, Calif.). […] Immunoreactivity was detected by sequential incubation with horseradish peroxidase-conjugated secondary antibodies purchased from Pierce (Rockford, Ill.) and ECL detection reagents purchased from Amersham Life Sciences Inc. (Arlington Heights, Ill., USA).

J774 A1 macrophages [5] = assay: IL-6 release from J774 A1 macrophages (ELISA); format: cell-based, murine; settings: J774 A1, FIG. 3C panel c
Protocol: FIG. 3C panel c—Analysis of IL-6 release from J774 A1 macrophages incubated with BAG3. J774 A1 cells at 80% confluency macrophages were incubated with control medium, BSA, LPS or recombinant BAG3 for 5 hours. BAG3 peptides (peptide 1, peptide 2, peptide 3, peptide 4 or scrambled peptide) 625 nM were added where indicated to verify their ability to block BAG3 activity. IL-6 production was measured in cell culture medium using an ELISA test. IL-6 concentration was evaluated by comparing the OD of the sample with that of a standard curve of recombinant IL-6. IL6 was measured in supernatant of J774 A.1 cells (5×10^4/in 96-well microplates) treated with LPS (10 ng/ml) or with rBAG3 (14 nM) or BSA (14 nM) for 10 or 20 hours in absence or presence of polymyxin B sulfate (5 μg/ml). After treatment 50 μL of cell culture medium were collected and analyzed in triplicate with a mouse IL6 Kit (eBioscience).

Substance	Competiton assays % inhibition (J774 A.1 cells [1])	Competiton assays % of positive cells (±S.D.) (J774 A.1 cells [1])	also measured
NPSSMTDTPGNPAAP (listed as Homo sapiens) [Pep4, 14]	93.8%	0.68 (±0.20) %	
DKGKKNAGNAEDPHT (listed as Homo sapiens) [Pep3, 13]	47.2%	5.86 (±0.43) %	
FITC-rBAG3: BAG3 recombinant protein conjugated to FITC			binding to the cardiomyocyte surface (HCMa cells): did not apparently bind; binding to macrophages of the cell line J774 (J774 A.1 cells [2]; FIG. 3B, result in words): bound; FITC-rBAG3 % of positive cells (±S.D.) (J774 A.1 cells [2]; J774 cells, flow cytometry): 15.7 (±0.45) %
SSPKSVATEERAAPS (listed as Homo sapiens) [Pep2, 12]	89.1%	1.21 (±0.63) %	
DRDPLPPGWEIKIDPQ (listed as Homo sapiens) [Pep1, 11]	98.4%	0.18 (±0.05) %	
recombinant BAG3: E. coli-derived recombinant BAG3 protein; human BAG3 is SEQ ID NO:15			release of nitrite (J774 A1 macrophages [3]): induced the release; expression of inducible nitric oxide synthase (iNOS) and cyclooxygenase (Cox)-2 (J774 A1 macrophages [4]): enhanced; release of interleukin (IL)-6 (J774 A1 macrophages [5]): induced the release
FITC-BSA: purified albumin from bovine serum conjugated to FITC, negative control			FITC-BSA % of positive cells (±S.D.) (J774 A.1 cells [2]; J774 cells, flow cytometry, negative control): 4.04 (±0.06) %
